Test system: production and secretion of NGF in mouse L-M cells
Experiment: Promoting activity for the production and secretion of NGF in mouse L-M cells (ELISA of medium after 24 h)
Format: cell-based
Settings: Mus musculus, 24 h; Table 5; L-M cells; 0.4 mM; fold increase over control (1.00); read-out: NGF L-M Cell Increase Ratio
Procedure: Promoting activity for the production and secretion of NGF in mouse L-M cells
The medium was cultured for 3 days at a temperature of 37° C. […] The sample of the derivative tested is contained in the medium at a prescribed concentration as illustrated in the Tables. […] Data are expressed as fold increase in NGF content of the medium over that cultivated in the absence of the derivative to be tested. […] Data are presented as the mean of four determinations. The results are illustrated in Tables 1-5.

Row | Compound | fold induction at 400 µM
1 | CN1CCN(C(=O)CCc2ccc(O)c(O)c2)CC1 [Compound 100, N-Methyl-N'-[3-(3,4-dihydroxyphenyl)propionyl]piperazine] | 5
2 | CCCCN(C)C(=O)CCc1ccc(O)c(O)c1 [Compound 90, N-n-Butyl-N-methyl-3,4-dihydroxyphenylpropionamide] | 6.4
3 | CCCCCCCCCCCCNC(=O)CCc1ccc(O)c(O)c1 [Compound 89, N-Lauryl-3,4-dihydroxyphenylpropionamide] | 4.3
4 | CCCCCCNC(=O)CCc1ccc(O)c(O)c1 [Compound 87, N-n-Hexyl-3,4-dihydroxyphenylpropionamide] | 5.8
5 | CCOC(=O)C1CCCN(C(=O)CCc2ccc(O)c(O)c2)C1 (stereo not shown) [Compound 104, Ethyl N-[3-(3,4-dihydroxyphenyl)propionyl]nipecotinate] | 5.7
6 | O=C(CCc1ccc(O)c(O)c1)N1CCOCC1 [Compound 99, N-[3-(3,4-Dihydroxyphenyl)propionyl]morpholine] | 4.8
7 | CCCCCCCCCCCCCCCCCCNC(=O)CCc1ccc(O)c(O)c1 [Compound 91, N-Stearyl-3,4-dihydroxyphenylpropionamide] | 4.1
8 | O=C(CCc1ccc(O)c(O)c1)NC12CC3CC(CC(C3)C1)C2 [Compound 96, N-Adamantyl-3,4-dihydroxyphenylpropionamide] | 5.7
9 | CCCCCCN(CCCCCC)C(=O)CCc1ccc(O)c(O)c1 [Compound 92, N,N-Di-n-hexyl-3,4-dihydroxyphenylpropionamide] | 5
10 | O=C(CCc1ccc(O)c(O)c1)N1CCCC1 [Compound 98, N-[3-(3,4-Dihydroxyphenyl)propionyl]pyrrolidine] | 6.1
11 | CCCCNC(=O)CCc1ccc(OC(C)=O)c(OC(C)=O)c1 [Compound 85, N-n-Butyl-3,4-diacetoxyphenylpropionamide] | 6.8

Same assay, conditions: Table 5; L-M cells; 0.4 mM; 24 hours; control 0.87

Row | Compound | NGF L-M Cell Concentration [ng/well]
12 | CN1CCN(C(=O)CCc2ccc(O)c(O)c2)CC1 [Compound 100, N-Methyl-N'-[3-(3,4-dihydroxyphenyl)propionyl]piperazine] | 4.35
13 | CCCCN(C)C(=O)CCc1ccc(O)c(O)c1 [Compound 90, N-n-Butyl-N-methyl-3,4-dihydroxyphenylpropionamide] | 5.57
14 | CCCCCCCCCCCCNC(=O)CCc1ccc(O)c(O)c1 [Compound 89, N-Lauryl-3,4-dihydroxyphenylpropionamide] | 3.74
15 | CCCCCCNC(=O)CCc1ccc(O)c(O)c1 [Compound 87, N-n-Hexyl-3,4-dihydroxyphenylpropionamide] | 5.05
16 | CCOC(=O)C1CCCN(C(=O)CCc2ccc(O)c(O)c2)C1 (stereo not shown) [Compound 104, Ethyl N-[3-(3,4-dihydroxyphenyl)propionyl]nipecotinate] | 4.96
17 | O=C(CCc1ccc(O)c(O)c1)N1CCOCC1 [Compound 99, N-[3-(3,4-Dihydroxyphenyl)propionyl]morpholine] | 4.18
18 | CCCCCCCCCCCCCCCCCCNC(=O)CCc1ccc(O)c(O)c1 [Compound 91, N-Stearyl-3,4-dihydroxyphenylpropionamide] | 3.57
19 | O=C(CCc1ccc(O)c(O)c1)NC12CC3CC(CC(C3)C1)C2 [Compound 96, N-Adamantyl-3,4-dihydroxyphenylpropionamide] | 4.96
20 | CCCCCCN(CCCCCC)C(=O)CCc1ccc(O)c(O)c1 [Compound 92, N,N-Di-n-hexyl-3,4-dihydroxyphenylpropionamide] | 4.35
21 | O=C(CCc1ccc(O)c(O)c1)N1CCCC1 [Compound 98, N-[3-(3,4-Dihydroxyphenyl)propionyl]pyrrolidine] | 5.31
22 | CCCCNC(=O)CCc1ccc(OC(C)=O)c(OC(C)=O)c1 [Compound 85, N-n-Butyl-3,4-diacetoxyphenylpropionamide] | 5.92

Test system: production and secretion of NGF in mouse brain astroglial cells
Experiment: Promoting activity for the production and secretion of NGF in mouse brain astroglial cells (ELISA of medium after 24 h)
Format: cell-based
Settings: Mus musculus, 24 h, Table 3, sample concentration 0.4 mM, fold increase over control (1.00), read-out: NGF Increase Ratio
Procedure: Promoting activity for the production and secretion of NGF in mouse brain astroglial cells
The experiment was performed by inducing astroglial cells from the mouse forebrain to a culture system according to the procedures of S. Furukawa et al. which is described in Biochem. Biophys. Res. Commun., 136, 57-63 (1986).
Forebrains of 8-days old mice were dissected out and cut into small pieces. The pieces were washed with calcium- and magnesium-free phosphate-bufferedsaline (hereinafter abbreviated as PBS), treated with 0.25% trypsin containing PBS at 37° C. for 30 minutes and triturated with a Pasteur pipet to give a suspension. Cells and cell clumps were recovered by centrifugation at 200 xg for 5 minutes. They were cultured in Dulbecco modified Eagle's medium (a product of Gibco Co. hereinafter abbreviated as DMEM) containing 10% fetal calf serum, 50 μ units/ml of penicillin, and 50 μg/ml of streptomycin, for 10 to 14 days with medium changes every 3 days. After completing confluency, the cells were dissociated by trypsin treatment and recultured in new culture flasks. This procedure was repeated further twice and more. The culture became a uniform cell cluster. The cell cluster for use in this invention can be stained not less than 97% in accordance with the PAP staining method (peroxidase/[…] staining method) using anti-human glial fibrillar acidic protein (GFAP) rabbit antiserum. The cells will hereinafter be referred to as astroglial cells.
Astroglial cells were innoculated in 24-well plates having a well surface area of 2.1 cm^2 (a product of Falcon Co.) at a cell density of about 3×10^4 cells/well and cultured for 3 days in DMEM medium supplemented with 10% of fetal calf serum. After completing confluency about ([…]), the medium was changed to DMEM medium (0.5 ml/well) supplemented with 0.5% of bovine serum albumin (fraction V) and cultured for 3 days. The culture was further continued with medium changes every 3 days. After cells were practically synchronized in the quiscent stage, the medium was changed to 0.5 ml of the same medium and containing a prescribed concentration of test sample as illustrated in the Tables. NGF in the medium after cultivating for 24 hours was determined by the ELISA as mentioned above. Data are expressed as fold increase in NGF content over that in the absence of the test sample. The lower detection limit of the ELISA is 0.25 pg/ml and the NGF content of control medium was normally 1-10 pg/0.5 ml/well. Data are presented as the mean of four determinations. The results are illustrated in Tables 1-5.

Row | Compound | fold induction at 400 µM
23 | CCCCN(C)CCc1ccc(O)c(O)c1 [Compound 32] | 4.82
24 | CCCCN(C)CCc1ccc(OC(C)=O)c(OC(C)=O)c1 [Compound 33] | 4.74

Same assay, conditions: Mus musculus, 24 h, Table 4, sample concentration 0.2 mM, fold increase over control, read-out: NGF Increase Ratio

Row | Compound | fold induction at 200 µM
25 | CCCCNC(=O)CCc1ccc(O)c(O)c1 [Compound 82] | 8.35

Same assay, conditions: Mus musculus, 24 h, Table 4, sample concentration 0.4 mM, fold increase over control, read-out: NGF Increase Ratio

Row | Compound | fold induction at 400 µM
26 | CCCCNC(=O)CCc1ccc(OC(C)=O)c(OC(C)=O)c1 [Compound 83] | 8.82

Same assay, conditions: Mus musculus, 24 h, Table 5, 0.4 mM, fold increase over control (1.00), read-out: NGF Astroglial Cell Increase Ratio

Row | Compound | fold induction at 400 µM
27 | CN1CCN(C(=O)CCc2ccc(O)c(O)c2)CC1 [Compound 100, N-Methyl-N'-[3-(3,4-dihydroxyphenyl)propionyl]piperazine] | 8.2
28 | CCCCN(C)C(=O)CCc1ccc(O)c(O)c1 [Compound 90, N-n-Butyl-N-methyl-3,4-dihydroxyphenylpropionamide] | 30
29 | CCCCCCCCCCCCNC(=O)CCc1ccc(O)c(O)c1 [Compound 89, N-Lauryl-3,4-dihydroxyphenylpropionamide] | 5
30 | CCCCCCNC(=O)CCc1ccc(O)c(O)c1 [Compound 87, N-n-Hexyl-3,4-dihydroxyphenylpropionamide] | 12
31 | CCOC(=O)C1CCCN(C(=O)CCc2ccc(O)c(O)c2)C1 (stereo not shown) [Compound 104, Ethyl N-[3-(3,4-dihydroxyphenyl)propionyl]nipecotinate] | 7.8
32 | O=C(CCc1ccc(O)c(O)c1)N1CCOCC1 [Compound 99, N-[3-(3,4-Dihydroxyphenyl)propionyl]morpholine] | 5.2
33 | CCCCCCCCCCCCCCCCCCNC(=O)CCc1ccc(O)c(O)c1 [Compound 91, N-Stearyl-3,4-dihydroxyphenylpropionamide] | 5.2
34 | O=C(CCc1ccc(O)c(O)c1)NC12CC3CC(CC(C3)C1)C2 [Compound 96, N-Adamantyl-3,4-dihydroxyphenylpropionamide] | 18
35 | CCCCCCN(CCCCCC)C(=O)CCc1ccc(O)c(O)c1 [Compound 92, N,N-Di-n-hexyl-3,4-dihydroxyphenylpropionamide] | 8.8
36 | O=C(CCc1ccc(O)c(O)c1)N1CCCC1 [Compound 98, N-[3-(3,4-Dihydroxyphenyl)propionyl]pyrrolidine] | 12.8
37 | CCCCNC(=O)CCc1ccc(OC(C)=O)c(OC(C)=O)c1 [Compound 85, N-n-Butyl-3,4-diacetoxyphenylpropionamide] | 33.6

Same assay, conditions: Table 3, sample concentration 0.4 mM, 24 hours, control 42.3

Row | Compound | NGF Concentration [ng/well]
38 | CCCCN(C)CCc1ccc(O)c(O)c1 [Compound 32] | 203.8
39 | CCCCN(C)CCc1ccc(OC(C)=O)c(OC(C)=O)c1 [Compound 33] | 200.6

Same assay, conditions: Table 4, sample concentration 0.2 mM, 24 hours

Row | Compound | NGF Concentration [ng/well]
40 | CCCCNC(=O)CCc1ccc(O)c(O)c1 [Compound 82] | 360.9

Same assay, conditions: Table 4, sample concentration 0.4 mM, 24 hours

Row | Compound | NGF Concentration [ng/well]
41 | CCCCNC(=O)CCc1ccc(OC(C)=O)c(OC(C)=O)c1 [Compound 83] | 381.2

Same assay, conditions: Table 5, 0.4 mM, 24 hours, control 31.8

Row | Compound | NGF Astroglial Cell Concentration [ng/well]
42 | CN1CCN(C(=O)CCc2ccc(O)c(O)c2)CC1 [Compound 100, N-Methyl-N'-[3-(3,4-dihydroxyphenyl)propionyl]piperazine] | 260.8
43 | CCCCN(C)C(=O)CCc1ccc(O)c(O)c1 [Compound 90, N-n-Butyl-N-methyl-3,4-dihydroxyphenylpropionamide] | 489.0
44 | CCCCCCCCCCCCNC(=O)CCc1ccc(O)c(O)c1 [Compound 89, N-Lauryl-3,4-dihydroxyphenylpropionamide] | 81.5
45 | CCCCCCNC(=O)CCc1ccc(O)c(O)c1 [Compound 87, N-n-Hexyl-3,4-dihydroxyphenylpropionamide] | 195.6
46 | CCOC(=O)C1CCCN(C(=O)CCc2ccc(O)c(O)c2)C1 (stereo not shown) [Compound 104, Ethyl N-[3-(3,4-dihydroxyphenyl)propionyl]nipecotinate] | 248.0
47 | O=C(CCc1ccc(O)c(O)c1)N1CCOCC1 [Compound 99, N-[3-(3,4-Dihydroxyphenyl)propionyl]morpholine] | 165.4
48 | CCCCCCCCCCCCCCCCCCNC(=O)CCc1ccc(O)c(O)c1 [Compound 91, N-Stearyl-3,4-dihydroxyphenylpropionamide] | 84.8
49 | O=C(CCc1ccc(O)c(O)c1)NC12CC3CC(CC(C3)C1)C2 [Compound 96, N-Adamantyl-3,4-dihydroxyphenylpropionamide] | 293.4
50 | CCCCCCN(CCCCCC)C(=O)CCc1ccc(O)c(O)c1 [Compound 92, N,N-Di-n-hexyl-3,4-dihydroxyphenylpropionamide] | 143.4
51 | O=C(CCc1ccc(O)c(O)c1)N1CCCC1 [Compound 98, N-[3-(3,4-Dihydroxyphenyl)propionyl]pyrrolidine] | 407.0
52 | CCCCNC(=O)CCc1ccc(OC(C)=O)c(OC(C)=O)c1 [Compound 85, N-n-Butyl-3,4-diacetoxyphenylpropionamide] | 547.7

Reference: patent publication US5232923A, “Catechol derivatives and pharmaceutical preparations containing same” (Mitsui Toatsu Chemicals, Incorporated, priority 1988, dated 1993)
